According to US20230277568A1, “METHOD OF TREATMENT FOR […] PSILOCIN INFUSION” (Eleusis Therapeutics US, Inc., priority 2020, published 2023):
“Also recorded” adds a separate entry of the source.

Key:
WKY rats = assay: Forced swim test in rat model of depression; assay type: in vivo; details: FST 21 days after injection
Description: A rat model of depression was used to assess the antidepressant effect of psilocin alone or in combination with lorazepam. WKY rats were divided into 3 groups (n=8 animals per group) and treated with (i) 1 mg/kg of psilocin injected as a bolus dose into the tail vein (PSI); (ii) 1.8 mg/kg of lorazepam injected 30 i.p. minutes prior to a 1 mg/kg tail vein injection of psilocin (P+L); or (iii) saline (SAL; as a control group). The dose of lorazepam was chosen to be a moderate/low non-sedating but anxiolytic dose in rats after consultation with an expert in the field of benzodiazepine's effects in rats.
After injection treatment, rats were maintained in their home cage for three weeks (21 days) prior to testing by forced swim test (FST) as described in Hibicke et al., ACS Chem. Neurosci. 2020, 11, 6, 864-871.
Forced Swim Test methodology: During a pre-exposure, rats were placed into a plastic cylindrical tank (114 cm×30.5 cm) that contained 30 cm of water at 28-30° C. The water depth was such that the rats could not support themselves by touching the bottom of the tank with their hind paws, and their tails could not touch the bottom of the tank while keeping their noses above water. After a 15 min swim, the rats were removed, dried with paper towels, and replaced in their home cages. Fresh water was used for each animal. For the testing, a video camera was mounted to the side of the tank, and the rats were exposed to a 5 min swim under the conditions described above and then removed, dried with paper towels, and returned to their home cages. The 5 min swim was recorded for later scoring for immobility, swimming, and climbing. FST scoring was performed by a trained scorer. Immobility was defined as no active attempts to escape while maintaining a floating posture in which the rats make only the movements necessary to keep their heads above water. Swimming was defined as actively attempting escape with motions directed outward against the wall of the cylinder. Climbing was defined as actively attempting escape with motions directed upward against the wall of the cylinder.

5-HT2A receptor = 5-HT2A receptor (Homo sapiens, UniProt P28223); details: background statement; cited from earlier work
[1] = 1.8 mg/kg lorazepam i.p. 30 minutes prior to 1 mg/kg i.v. psilocin

5-HT2A receptor, sequence (P28223 whole entry): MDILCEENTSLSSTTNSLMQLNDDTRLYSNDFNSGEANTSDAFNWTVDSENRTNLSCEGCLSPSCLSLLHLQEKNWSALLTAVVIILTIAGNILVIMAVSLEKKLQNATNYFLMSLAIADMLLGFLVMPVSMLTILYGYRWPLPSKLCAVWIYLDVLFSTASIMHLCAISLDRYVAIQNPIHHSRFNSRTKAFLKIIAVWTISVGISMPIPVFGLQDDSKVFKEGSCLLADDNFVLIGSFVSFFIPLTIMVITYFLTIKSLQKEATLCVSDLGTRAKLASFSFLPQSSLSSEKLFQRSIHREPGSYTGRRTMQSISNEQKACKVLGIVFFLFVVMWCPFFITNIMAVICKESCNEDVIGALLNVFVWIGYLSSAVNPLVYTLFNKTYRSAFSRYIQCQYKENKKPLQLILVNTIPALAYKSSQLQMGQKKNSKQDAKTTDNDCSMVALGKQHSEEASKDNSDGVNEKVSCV

| SMILES | effect of lorazepam pretreatment on the effects of psilocin, immobility measure (WKY rats; [1]) | effect of lorazepam pretreatment on the effects of psilocin, swimming behavior (WKY rats; [1]) | effect of lorazepam pretreatment on the effects of psilocin, immobility measure (WKY rats; 1.8 mg/kg lorazepam i.p. 30 minutes prior to 1 mg/kg i.v. psilocin, listed as lorazepam) | antidepressant-like behaviors in forced swim test (WKY rats; 1 mg/kg psilocin single i.v. bolus (tail vein), 1 mg/kg) | affinity for the 5-HT2A receptor (5-HT2A receptor) |
| --- | --- | --- | --- | --- | --- |
| O=C1Nc2ccc(Cl)cc2C(c2ccccc2Cl)=NC1O (centres unmarked) [Lorazepam] | slight but significant effect to blunt the effects of psilocin | no significant effect | slight, but significant effect |  |  |
| CN(C)CCc1c[nH]c2cccc(O)c12 [psilocin, 4-hydroxy-N,N-dimethyltrypamine] |  |  |  | as efficacious in producing long-lasting antidepressant-like behaviors in this model as a single i.p. administration of psilocybin of the same dose; also recorded: as efficacious in producing long-lasting antidepressant-like behaviors in our model as a single i.p. administration of psilocybin of the same dose | high affinity |
